PMC7023064, “Design, Synthesis, and Evaluation of Novel 2-Methoxyestradiol Derivatives as Apoptotic Inducers through an Intrinsic Apoptosis Pathway” (Biomolecules, 2020)
Read-outs that look alike come from different tables or passages of the source.

How the values were obtained:
[1] = tested on: human breast adenocarcinoma MCF-7 cell lines; assay: MTT cytotoxicity assay, MCF-7; assay type: cell-based
Procedure: (§1) Human breast adenocarcinoma MCF-7 cell lines, human breast cancer MDA-MB-231 cell lines, and the normal human liver L-O2 cell lines were provided by Nanjing KeyGen Biotech Co. Ltd. (Nanjing, China). MCF-7 cells were cultured in a base medium (90% RPMI-1640 and 10% FBS) at 37 °C, 5% CO2 and a saturated humidity atmosphere. MDA-MB-231 cells were cultured in a base medium (90% […] and 10% FBS) at 37 °C, 5% CO2 and a saturated humidity atmosphere. L-O2 cells were cultured in a base medium (90% DMEM and 10% FBS) at 37 °C, 5% CO2 and a saturated humidity atmosphere.
(§2) The cytotoxicity of the tested compounds was determined using the 3-(4,5-dimethyl-2-thiazolyl)-2,5-diphenyl-2-H-tetrazolium bromide (MTT) assay. Cells were seeded in 96-well plates and incubated in a 5% CO2 incubator at 37 °C. When the cells adhered, compounds at different concentrations were added to every well. After incubation for another 72 h, MTT solution (5 mg/mL) was added into each well and cells were incubated for an additional 4 h. The viable cells were stained with MTT and scanned with an electrophotometer at 570 nm. Each concentration treatment was done in triplicate wells. The half maximal inhibitory concentration (IC50) values were estimated by fitting the inhibition data to a dose-dependent curve using a logistic derivative equation.

[2] = tested on: human breast cancer MDA-MB-231 cell lines; assay: MTT cytotoxicity assay, MDA-MB-231; assay type: cell-based; details: mean ± SD of three experiments
Procedure: as §1, §2

[3] = tested on: normal human liver L-O2 cell lines; assay: MTT cytotoxicity assay, L-O2; assay type: cell-based; details: mean ± SD of three experiments, No = No inhibition detected
Procedure: as §1, §2

[4] = tested on: MCF-7 and MDA-MB-231 cell lines; assay: MTT assay, summary over tested tumor cells; assay type: cell-based, human; details: for IC50: Homo sapiens, MCF-7 and MDA-MB-231, read-out: IC50, anti-proliferative activity against tested tumor cells
Procedure: as §1, §2

[5] = Homo sapiens, MCF7, MTT, 72 h, mean ± SD of three experiments, read-out: IC50 MCF-7
[6] = Homo sapiens, MCF7, Table 2, mean ± SD of three experiments, read-out: IC50 for MCF-7
[7] = Homo sapiens, MCF7, pIC50 = −log(IC50), read-out: pIC50 for MCF-7 (converted)
[8] = MTT, 72 h, mean ± SD of three experiments, read-out: IC50 MCF-7
[9] = Table 2, mean ± SD of three experiments, read-out: IC50 for MCF-7

Molecule	IC50 [1, 5] [µM]	IC50 [1, 6] [µM]	IC50 [1, 7] [µM]	IC50 ([2]; Homo sapiens, MDA-MB-231, 72 h) [µM]	IC50 L-O2 ([3]; 72 h)	melting point [°C]	IC50 [1, 8] [µM]	IC50 ([2]; 72 h) [µM]	IC50 ([3]; 72 h) [µM]	IC50 [1, 9] [µM]	pIC50 for MCF-7 ([1]; pIC50 = −log(IC50))	IC50 ([3]; Homo sapiens, L02, 72 h) [µM]	IC50 [4] [µM]	selectivity towards cancerous cell lines vs healthy cell line ([4]; MCF-7 and MDA-MB-231 vs L-O2)
COc1cc2c(cc1O)CC[C@@H]1[C@@H]2CC[C@]2(C)[C@@H](OCCCCCCCCn3cc(C)c(=O)n(CCCCCCCCO[C@H]4CC[C@H]5[C@@H]6CCc7cc(O)c(OC)cc7[C@H]6CC[C@]45C)c3=O)CC[C@@H]12 [Compound 15b, 1,3-bis-{8-[2-Methoxy-3-Hydroxy-Estra-1,3,5(10)-Triene-17β-yl-oxy]-Octyl}-5-Methyl-Uracil]	> 100	> 100	> 100	> 100	No	73 to 75	–	–	–	–	–	–	–	–
O=c1[nH]cc(F)c(=O)[nH]1 [Compound 5-FU, reference compound]	–	–	–	–	–	–	8.87 ± 0.59	61.9 ± 2.23	> 100	–	–	–	–	–
3-[6-(Uracil-3-yl)-Hexyloxy]-2-Methoxy-Estra-1,3,5(10)-Triene-17β-ol [Compound 20a]	–	–	–	–	–	–	17.9 ± 0.22	14 ± 1.69	38.5 ± 1.87	17.9 ± 0.22	4.75	–	–	–
COc1cc2c(cc1O)CC[C@@H]1[C@@H]2CC[C@]2(C)[C@@H](OCCCCCCn3cc(C)c(=O)n(CCCCCCO[C@H]4CC[C@H]5[C@@H]6CCc7cc(O)c(OC)cc7[C@H]6CC[C@]45C)c3=O)CC[C@@H]12 [Compound 13b, 1,3-Bis-{6-[2-Methoxy-3-Hydroxy-Estra-1,3,5(10)-Triene-17β-yl-oxy]-Hexyl}-5-Methyl-Uracil]	> 100	> 100	> 100	> 100	No	84 to 86	–	–	–	–	–	–	–	–
COc1cc2c(cc1OCCCCCCn1ccc(=O)n(CCCCCCOc3cc4c(cc3OC)[C@H]3CC[C@]5(C)[C@@H](O)CC[C@H]5[C@@H]3CC4)c1=O)CC[C@@H]1[C@@H]2CC[C@]2(C)[C@@H](O)CC[C@@H]12 [Compound 20b, 1,3-Bis-{6-[2-Methoxy-17β-Hydroxy-Estra-1,3,5(10)-Triene-3-yl-Oxy]-Hexyl}-Uracil]	> 100	> 100	> 100	> 100	No	93 to 94	–	–	–	–	–	–	–	–
COc1cc2c(cc1OCCCCCCn1c(=O)ccn([C@@H]3O[C@H](CO)[C@@H](O)[C@H]3O)c1=O)CC[C@@H]1[C@@H]2CC[C@]2(C)[C@@H](O)CC[C@@H]12 [Compound 18, 3-[6-(1-β-D-Ribofuranosyluracil-3-yl)-Hexyloxy]-2-Methoxy-Estra-1,3,5(10)-Triene-17β-ol]	6.21 ± 0.37	6.21 ± 0.37	6.17	3.89 ± 0.36	–	99 to 100	–	–	–	–	–	21.3 ± 0.66	3.89 to 16.7	–
3-[6-(5-Methyl-Uracil-3-yl)-Hexyloxy]-2-Methoxy-Estra-1,3,5(10)-Triene-17β-ol [Compound 21a]	–	–	–	–	–	–	9.97 ± 0.39	7.34 ± 0.56	28.2 ± 0.57	9.97 ± 0.39	5.00	–	–	–
COc1cc2c(cc1OCCCCCCn1cc(C)c(=O)n(CCCCCCOc3cc4c(cc3OC)[C@H]3CC[C@]5(C)[C@@H](O)CC[C@H]5[C@@H]3CC4)c1=O)CC[C@@H]1[C@@H]2CC[C@]2(C)[C@@H](O)CC[C@@H]12 [Compound 21b, 1,3-bis-{6-[2-Methoxy-17β-Hydroxy-Estra-1,3,5(10)-Triene-3-yl-oxy]-Hexyl}-5-Methyl-Uracil]	28.4 ± 1.76	28.4 ± 1.76	28.2	23.8 ± 1.45	–	79 to 81	–	–	–	–	–	> 100	~25	about 4 fold
COc1cc2c(cc1O)CC[C@@H]1[C@@H]2CC[C@]2(C)[C@@H](OCCCCCCn3c(=O)ccn([C@@H]4O[C@H](CO)[C@@H](O)[C@H]4O)c3=O)CC[C@@H]12 [Compound 10, 17 β-[6-(1-β-D-Ribofuranosyluracil-3-yl)-Hexyloxy]-2-Methoxy-Estra-1,3,5(10)-Triene-3-ol]	16.7 ± 0.3	16.7 ± 0.3	16.6	13.2 ± 1.09	–	79 to 81	–	–	–	–	–	35.2 ± 0.42	3.89 to 16.7	–
COc1cc2c(cc1OCCCCCCCCn1cc(C)c(=O)n(CCCCCCCCOc3cc4c(cc3OC)[C@H]3CC[C@]5(C)[C@@H](O)CC[C@H]5[C@@H]3CC4)c1=O)CC[C@@H]1[C@@H]2CC[C@]2(C)[C@@H](O)CC[C@@H]12 [Compound 23b, 1,3-bis-{8-[2-Methoxy-17β-Hydroxy-Estra-1,3,5(10)-Triene-3-yl-Oxy]-octyl}-5-Methyl-Uracil]	> 100	> 100	> 100	> 100	No	75 to 76	–	–	–	–	–	–	–	–
17 β-[8-(5-Methyl-Uracil-3-yl)-Octyloxy]-2-Methoxy-Estra-1,3,5(10)-Triene-3-ol [Compound 15a]	–	–	–	–	–	–	12.1 ± 0.45	19.3 ± 1.54	52.6 ± 1.82	12.1 ± 0.45	4.92	–	–	–
COc1cc2c(cc1O)CC[C@@H]1[C@@H]2CC[C@]2(C)[C@@H](O)CC[C@@H]12 [Compound 1, 2-Methoxyestradiol]	1.51 ± 0.04	1.51 ± 0.04	1.51	1.86 ± 0.02	–	–	–	–	–	–	–	4.7 ± 0.45	–	–
17 β-[8-(Uracil-3-yl)-Octyloxy]-2-Methoxy-Estra-1,3,5(10)-Triene-3-ol [Compound 14a]	–	–	–	–	–	–	9.22 ± 0.21	8 ± 0.41	17.5 ± 0.69	9.22 ± 0.21	5.04	–	–	–
COc1cc2c(cc1OCCCCCCCCn1ccc(=O)n(CCCCCCCCOc3cc4c(cc3OC)[C@H]3CC[C@]5(C)[C@@H](O)CC[C@H]5[C@@H]3CC4)c1=O)CC[C@@H]1[C@@H]2CC[C@]2(C)[C@@H](O)CC[C@@H]12 [Compound 22b, 1,3-Bis-{8-[2-Methoxy-17β-Hydroxy-Estra-1,3,5(10)-Triene-3-yl-Oxy]-Octyl}-Uracil]	> 100	> 100	> 100	> 100	No	74 to 76	–	–	–	–	–	–	–	–
17 β-[6-(5-Methyl-Uracil-3-yl)-Hexyloxy]-2-Methoxy-Estra-1,3,5(10)-Triene-3-ol [Compound 13a]	–	–	–	–	–	–	16.6 ± 1.26	13.3 ± 0.16	51.4 ± 1.47	16.6 ± 1.26	4.78	–	–	–
COc1cc2c(cc1OCCCCCCCCn1c(=O)ccn([C@@H]3O[C@H](CO)[C@@H](O)[C@H]3O)c1=O)CC[C@@H]1[C@@H]2CC[C@]2(C)[C@@H](O)CC[C@@H]12 [Compound 19, 3-[8-(1-β-D-Ribofuranosyluracil-3-yl)-Octyloxy]-2-Methoxy-Estra-1,3,5(10)-Triene-17β-ol]	7.87 ± 0.42	7.87 ± 0.42	7.94	10.44 ± 0.07	–	93 to 95	–	–	–	–	–	32.8 ± 0.65	3.89 to 16.7	–
3-[8-(Uracil-3-yl)-Octyloxy]-2-Methoxy-Estra-1,3,5(10)-Triene-17β-ol [Compound 22a]	–	–	–	–	–	–	10.3 ± 0.37	9.58 ± 0.98	25.9 ± 1.82	10.3 ± 0.37	4.99	–	–	–
COc1cc2c(cc1O)CC[C@@H]1[C@@H]2CC[C@]2(C)[C@@H](OCCCCCCn3ccc(=O)n(CCCCCCO[C@H]4CC[C@H]5[C@@H]6CCc7cc(O)c(OC)cc7[C@H]6CC[C@]45C)c3=O)CC[C@@H]12 [Compound 12b, 1,3-bis-{6-[2-Methoxy-3-Hydroxy-Estra-1,3,5(10)-Triene-17β-yl-oxy]-Hexyl}-Uracil]	> 100	> 100	> 100	> 100	No ^b	71 to 73	–	–	–	–	–	–	–	–
3-[8-(5-Methyl-Uracil-3-yl)-Octyloxy]-2-Methoxy-Estra-1,3,5(10)-Triene-17β-ol [Compound 23a]	–	–	–	–	–	–	8.75 ± 0.22	12.7 ± 0.22	25.5 ± 1.86	8.75 ± 0.22	5.06	–	–	–
COc1cc2c(cc1O)CC[C@@H]1[C@@H]2CC[C@]2(C)[C@@H](OCCCCCCCCn3ccc(=O)n(CCCCCCCCO[C@H]4CC[C@H]5[C@@H]6CCc7cc(O)c(OC)cc7[C@H]6CC[C@]45C)c3=O)CC[C@@H]12 [Compound 14b, 1,3-Bis-{8-[2-Methoxy-3-Hydroxy-Estra-1,3,5(10)-Triene-17β-yl-Oxy]-Octyl}-Uracil]	> 100	> 100	> 100	> 100	No	73 to 75	–	–	–	–	–	–	–	–
